Measured values taken from US9353101B2 (Merck Sharp & Dohme Corp., priority 2012, dated 2016).

What follows are molecules tested against CETP (Homo sapiens (Human), UniProt P11597) (assay: In vitro radioactive assay of CETP-catalyzed CE and TG transfer (RTA assay), 95% human serum). Conditions: RTA assay in 95% human serum; read-out: RTA IC50 (CETP Inhibition).
Type: biochemical
Procedure: In Vitro Radioactive Assays of CETP-Catalyzed CE and TG Transfer (RTA Assay)
Reagents and sources are: [3H] cholesteryl oleate (GE #TRK.886), [3H] Triolein (Perkin-Elmer NET-431), Butylated hydroxyl toluene (Aldrich, #D4740-4), DOPC (Sigma, # P6354), Sodium Bromide (Fisher scientific #S255-500), PEG 8000 (Fisher, #BP233-1), and human HDL (Intracel Corp #RP-036).
An in vitro assay for determining IC50's to identify compounds that inhibit CETP transfer activity is performed based on a modification of a published method (Morton and Zilversmit, (1981) A plasma inhibitor of triglyceride and cholesteryl ester transfer activities, J. Biol. Chem. 256(23), 11992-11995). The ability of inhibitors to alter CETP activity is performed using two different assays: one using recombinant CETP and one using an endogenous plasma source of CETP. Both assays measure the transfer of [3H] cholesteryl oleate or [3H] triolein from exogenous LDL to HDL.
Radiolabeled donor particles are generated by first combining 100 μl of 200 μM butylated hydroxyl toluene in CHCl3, 216 μL of 21.57 mM DOPC in EtOH, and either 500 μCi [3H]-triolein (Perkin Elmer #NET-431) or 500 μCi [3H]-cholesteryl oleate (GE #TRK886) in a glass tube. Reagents are mixed, dried under nitrogen, and then resuspended in 2 mL of 50 mM Tris, 27 μM EDTA at pH 7.4. After a brief vortex, the solution is sonicated until clear and mixed with 20 mL of fresh human serum. The mixture is incubated overnight at 37° C. The [3H] labeled LDL substrate is separated at 1.063 g/ml density by sequential ultracentrifugal flotation in NaBr according to the method by (Havel, Eder et al. 1955; Chapman, Goldstein et al. 1981). Once isolated the particles are dialyzed 3× in CETP buffer (50 mM Tris, pH 7.4, 100 mM NaCl, 1 mM EDTA). Human HDL is purchased from Intracel and used as the acceptor particles.
Transfer assays are performed in a 96 or 384-well v-bottom polypropylene plate. For the RTA using recombinant CETP (2% RTA), an assay cocktail is prepared with the final concentrations 128 μg/mL HDL, 20 nM rCETP, 2% human serum, and 1×CETP buffer. 1 μL of each test compound diluted in DMSO is added to 47 μL of assay cocktail per well and incubated at 37° C. for 1 hour. To initiate the transfer reaction, 2 μL radiolabeled LDL is added. After an additional 60 min of incubation at 37° C., the transfer action is terminated by precipitation of LDL with an equal volume of 20% W/V PEG 8000. The plates are centrifuged at 2000 rpm for 30 minutes at 4° C. A 40 μL aliquot of the HDL-containing supernatant is transferred to a Packard Optiplate™ with 200 μL of MicroScint™ 20. After mixing, plates are counted by liquid scintillation. Counts present in the supernatant for blanks (wells containing only HDL acceptor, CETP buffer and DMSO) are subtracted from those containing test compounds and used to correct for non-specific transfer.
For the transfer assay using endogenous CETP from serum (95% RTA), the same procedure is used except that human serum is added such that a final concentration of serum of 95% of the total assay volume is achieved, yielding a concentration of approximately 15 nM endogenous CETP in the assay. This is then combined with HDL and CETP buffer and the reaction proceeds as above and is terminated as described.
Comparison of the counts of samples with inhibitors to an uninhibited (DMSO only) positive control yield a percent inhibition. A plot of percent inhibition vs. log of inhibitor concentration, fit to a Sigmoidal 4 parameter equation is used to calculate IC50.
Starting materials are commercially available or are made using known procedures or as shown below. The examples may be synthesized using the general schemes provided below. The data reported for the examples below were obtained using the RTA assay in 95% human serum.

Chain of CETP (P11597 18-493 limits assumed): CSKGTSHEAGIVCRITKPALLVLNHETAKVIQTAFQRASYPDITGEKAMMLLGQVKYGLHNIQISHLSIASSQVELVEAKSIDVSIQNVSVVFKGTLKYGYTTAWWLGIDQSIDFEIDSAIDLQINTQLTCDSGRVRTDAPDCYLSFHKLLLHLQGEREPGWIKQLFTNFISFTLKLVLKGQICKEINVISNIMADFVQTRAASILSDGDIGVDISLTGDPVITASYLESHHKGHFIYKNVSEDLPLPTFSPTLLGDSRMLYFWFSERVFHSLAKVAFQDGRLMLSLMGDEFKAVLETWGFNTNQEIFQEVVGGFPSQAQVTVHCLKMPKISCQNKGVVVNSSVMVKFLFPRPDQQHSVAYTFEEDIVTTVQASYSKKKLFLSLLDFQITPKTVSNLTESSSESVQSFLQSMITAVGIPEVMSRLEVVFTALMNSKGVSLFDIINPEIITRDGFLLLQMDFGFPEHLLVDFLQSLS

SMILES | IC50
COc1ncc(C(C)(O)C(F)(F)F)cc1-c1cnc(N2CC(F)C2)nc1CN1C(=O)O[C@H](c2cc(C(F)(F)F)cc(C(F)(F)F)c2)[C@@H]1C (mixture of isomers) [Example 16, (4S,5R)-5-[3,5-Bis(trifluoromethyl)phenyl]-3-{[2-(3-fluoroazetidin-1-yl)-5-{2-methoxy-5-[(2RS)-1,1,1-trifluoro-2-hydroxypropan-2-yl]pyridin-3-yl}pyrimidin-4-yl]methyl}-4-methyl-1,3-oxazolidin-2-one] | 0.014 µM
COc1ncc(-c2sc(C)nc2C)cc1-c1cnc(N2CC(F)C2)nc1CN1C(=O)O[C@H](c2cc(C(F)(F)F)cc(C(F)(F)F)c2)[C@@H]1C [Example 3, (4S,5R)-5-[3,5-Bis(trifluoromethyl)phenyl]-3-({5-[5-(2,4-dimethyl-1,3-thiazol-5-yl)-2-methoxypyridin-3-yl]-2-(3-fluoroazetidin-1-yl)pyrimidin-4-yl}methyl)-4-methyl-1,3-oxazolidin-2-one] | 0.003 µM
COc1ncc(-c2c(C)nn(C)c2C)cc1-c1cnc(N2CC(F)C2)nc1CN1C(=O)O[C@H](c2cc(C(F)(F)F)cc(C(F)(F)F)c2)[C@@H]1C [Example 6] | 0.003 µM
COc1ncc(-c2c(C)noc2C)cc1-c1cnc(N2CC(F)C2)nc1CN1C(=O)O[C@H](c2cc(C(F)(F)F)cc(C(F)(F)F)c2)[C@@H]1C [Example 7] | 0.003 µM
COc1ncc(CCC(=O)O)cc1-c1cnc(N2CC(F)C2)nc1CN1C(=O)O[C@H](c2cc(C(F)(F)F)cc(C(F)(F)F)c2)[C@@H]1C [Example 8] | 0.092 µM
COc1ncc(C(F)(F)F)cc1-c1cnc(N2CC(F)C2)nc1CN1C(=O)O[C@H](c2cc(C(F)(F)F)cc(C(F)(F)F)c2)[C@@H]1C [Example 9, (4S,5R)-5-[3,5-Bis(trifluoromethyl)phenyl]-3-({2-(3-fluoroazetidin-1-yl)-5-[2-methoxy-5-(trifluoromethyl)pyridin-3-yl]pyrimidin-4-yl}methyl)-4-methyl-1,3-oxazolidin-2-one] | 0.014 µM
CCOc1ncc(C(F)(F)F)cc1-c1cnc(N2CC(F)C2)nc1CN1C(=O)O[C@H](c2cc(C(F)(F)F)cc(C(F)(F)F)c2)[C@@H]1C [Example 10] | 0.012 µM
COc1ncc(C(C)C)cc1-c1cnc(N2CC(F)C2)nc1CN1C(=O)O[C@H](c2cc(F)cc(F)c2)[C@@H]1C [Example 14, (4S,5R)-5-(3,5-Difluorophenyl)-3-{[2-(3-fluoroazetidin-1-yl)-5-(5-isopropyl-2-methoxypyridin-3-yl)pyrimidin-4-yl]methyl}-4-methyl-1,3-oxazolidin-2-one] | 0.016 µM
COc1ncc(-c2c(C)n[nH]c2C)cc1-c1cnc(N2CC(F)C2)nc1CN1C(=O)O[C@H](c2cc(C(F)(F)F)cc(C(F)(F)F)c2)[C@@H]1C [Example 17, (4S,5R)-5-[3,5-Bis(trifluoromethyl)phenyl]-3-({5-[5-(3,5-dimethyl-1H-pyrazol-4-yl)-2-methoxypyridin-3-yl]-2-(3-fluoroazetidin-1-yl)pyrimidin-4-yl}methyl)-4-methyl-1,3-oxazolidin-2-one] | 0.005 µM
CCCn1nc(C)c(-c2cnc(OC)c(-c3cnc(N4CC(F)C4)nc3CN3C(=O)O[C@H](c4cc(C(F)(F)F)cc(C(F)(F)F)c4)[C@@H]3C)c2)c1C [Example 18, (4S,5R)-5-[3,5-Bis(trifluoromethyl)phenyl]-3-({5-[5-(3,5-dimethyl-1-propyl-1H-pyrazol-4-yl)-2-methoxypyridin-3-yl]-2-(3-fluoroazetidin-1-yl)pyrimidin-4-yl}methyl)-4-methyl-1,3-oxazolidin-2-one] | 0.012 µM
CCn1nc(C)c(-c2cnc(OC)c(-c3cnc(N4CC(F)C4)nc3CN3C(=O)O[C@H](c4cc(C(F)(F)F)cc(C(F)(F)F)c4)[C@@H]3C)c2)c1C [Example 19] | 0.009 µM
COc1ncc(-c2c(C)nn(CC#N)c2C)cc1-c1cnc(N2CC(F)C2)nc1CN1C(=O)O[C@H](c2cc(C(F)(F)F)cc(C(F)(F)F)c2)[C@@H]1C [Example 21] | 0.018 µM
COc1ncc(-c2c(C)nn(CC(N)=O)c2C)cc1-c1cnc(N2CC(F)C2)nc1CN1C(=O)O[C@H](c2cc(C(F)(F)F)cc(C(F)(F)F)c2)[C@@H]1C [Example 22] | 0.022 µM
COc1ncc(-c2c(C)n[nH]c2C)cc1-c1cnc(N2CC(F)(F)C2)nc1CN1C(=O)O[C@H](c2cc(C(F)(F)F)cc(C(F)(F)F)c2)[C@@H]1C [Example 23, (4S,5R)-5-[3,5-Bis(trifluoromethyl)phenyl]-3-({2-(3,3-difluoroazetidin-1-yl)-5-[5-(3,5dimethyl-1H-pyrazol-4-yl)-2-methoxypyridin-3-yl]pyrimidin-4-yl}methyl)-4-methyl-1,3-oxazolidin-2-one] | 0.015 µM
COc1ncc(-c2c(C)n[nH]c2C)cc1-c1cnc(N2CC(O)C2)nc1CN1C(=O)O[C@H](c2cc(C(F)(F)F)cc(C(F)(F)F)c2)[C@@H]1C [Example 24] | 0.332 µM
COc1ncc(-c2c(C)n[nH]c2C)cc1-c1cnc(N2CCCC2)nc1CN1C(=O)O[C@H](c2cc(C(F)(F)F)cc(C(F)(F)F)c2)[C@@H]1C [Example 25] | 0.02 µM
COc1ncc(-c2c(C)n[nH]c2C)cc1-c1cnc(N2CCOCC2)nc1CN1C(=O)O[C@H](c2cc(C(F)(F)F)cc(C(F)(F)F)c2)[C@@H]1C [Example 26] | 0.023 µM
COc1ncc(-c2c(C)n[nH]c2C)cc1-c1cnc(N2CCC2)nc1CN1C(=O)O[C@H](c2cc(C(F)(F)F)cc(C(F)(F)F)c2)[C@@H]1C [Example 27] | 0.019 µM
COc1ncc(C(C)C)cc1-c1cnc(N2CC(F)(F)C2)nc1CN1C(=O)O[C@H](c2cc(C(F)(F)F)cc(C(F)(F)F)c2)[C@@H]1C [Example 28, (4S,5R)-5-[3,5-Bis(trifluoromethyl)phenyl]-3-{[2-(3,3-difluoroazetidin-1-yl)-5-(5-isopropyl-2-methoxypyridin-3-yl)pyrimidin-4-yl]methyl}-4-methyl-1,3-oxazolidin-2-one] | 0.005 µM
COc1ncc(C(C)C)cc1-c1cnc(N2[C@H](C)CC[C@H]2C)nc1CN1C(=O)O[C@H](c2cc(C(F)(F)F)cc(C(F)(F)F)c2)[C@@H]1C [Example 29] | 0.43 µM
COc1ncc(C(C)C)cc1-c1cnc(N2CCC[C@@H]2C)nc1CN1C(=O)O[C@H](c2cc(C(F)(F)F)cc(C(F)(F)F)c2)[C@@H]1C [Example 30] | 0.018 µM
COc1ncc(C(C)C)cc1-c1cnc(N2CCC2)nc1CN1C(=O)O[C@H](c2cc(C(F)(F)F)cc(C(F)(F)F)c2)[C@@H]1C [Example 31] | 0.005 µM
COc1ncc(-c2c(C)cc(C(=O)O)cc2C)cc1-c1cnc(N2CC(F)C2)nc1CN1C(=O)O[C@H](c2cc(C(F)(F)F)cc(C(F)(F)F)c2)[C@@H]1C [Example 32, 4-{5-[4-({(4S,5R)-5-[3,5-Bis(trifluoromethyl)phenyl]-4-methyl-2-oxo-1,3-oxazolidin-3-yl}methyl)-2-(3-fluoroazetidin-1-yl)pyrimidin-5-yl]-6-methoxypyridin-3-yl}-3,5-dimethylbenzoic acid] | 0.007 µM
COc1ncc(-c2c(C)cc(-c3n[nH]c(=O)o3)cc2C)cc1-c1cnc(N2CC(F)C2)nc1CN1C(=O)O[C@H](c2cc(C(F)(F)F)cc(C(F)(F)F)c2)[C@@H]1C [Example 33, 5-(4-{5-[4-({(4S,5R)-5-[3,5-Bis(trifluoromethyl)phenyl]-4-methyl-2-oxo-1,3-oxazolidin-3-yl}methyl)-2-(3-fluoroazetidin-1-yl)pyrimidin-5-yl]-6-methoxypyridin-3-yl}-3,5-dimethylphenyl)-1,3,4-oxadiazol-2(3H)-one] | 0.008 µM
